Legend:
Assay in all cases: relative viability (nuclei count vs DMSO), 5 days (fraction); higher = more cells survive
NCI-H441 = test system: NCI-H441
Summary of the method: (§1)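 Lung cancer cell lines in 1536-well plates were dosed by pin tool the day after seeding, either with one drug alone or with a fixed anchor-drug dose plus five library-drug doses (not always all listed) in √10 steps. After 5 days, cells were fixed and their nuclei stained in one step (final 0.05% Triton X-100, 1% formaldehyde, 1 ug/ml Hoechst), then counted on 4× images. Relative viability is the nuclei count in treated wells divided by that in vehicle wells. Values are medians of duplicate plates.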

NCI-H1650 = test system: NCI-H1650
Summary of the method: as §1

NCI-H2023 = test system: NCI-H2023
Summary of the method: as §1

NCI-H1915 = test system: NCI-H1915
Summary of the method: as §1

LCLC-97TM1 = test system: LCLC-97TM1
Summary of the method: as §1

NCI-H727 = test system: NCI-H727
Summary of the method: as §1

H3255 = test system: H3255
Summary of the method: as §1

NCI-H520 = test system: NCI-H520
Summary of the method: as §1

NCI-H596 = test system: NCI-H596
Summary of the method: as §1

NCI-H1792 = test system: NCI-H1792
Summary of the method: as §1

NCI-H650 = test system: NCI-H650
Summary of the method: as §1

ABC-1 = test system: ABC-1
Summary of the method: as §1

NCI-H1944 = test system: NCI-H1944
Summary of the method: as §1

NCI-H1651 = test system: NCI-H1651
Summary of the method: as §1

HCC-15 = test system: HCC-15
Summary of the method: as §1

NCI-H661 = test system: NCI-H661
Summary of the method: as §1

BEN = test system: BEN
Summary of the method: as §1

A-427 = test system: A-427
Summary of the method: as §1

CAL-12T = test system: CAL-12T
Summary of the method: as §1

LC-2-ad = test system: LC-2-ad
Summary of the method: as §1

NCI-H2087 = test system: NCI-H2087
Summary of the method: as §1

NCI-H460 = test system: NCI-H460
Summary of the method: as §1

PC-3 [JPC-3] = test system: PC-3 [JPC-3]
Summary of the method: as §1

201T = test system: 201T
Summary of the method: as §1

C[C@@H]1CN(CC(=O)Nc2ccc3c(c2)Cc2cccc(-c4cc(=O)cc(N5CCOCC5)o4)c2S3)C[C@H](C)O1 + Cc1nc(Nc2ncc(C(=O)Nc3c(C)cccc3Cl)s2)cc(N2CCN(CCO)CC2)n1 [Dasatinib] (partner 0.075 µM)
relative viability (NCI-H441; first compound 0.04 µM): 0.762 | relative viability (NCI-H441; first compound 0.1265 µM): 0.46 | relative viability (NCI-H441; first compound 0.4 µM): 0.62 | relative viability (NCI-H441; first compound 4 µM): 0.538 | relative viability (NCI-H1650; first compound 0.04 µM): 0.31 | relative viability (NCI-H1650; first compound 0.1265 µM): 0.293 | relative viability (NCI-H1650; first compound 0.4 µM): 0.301 | relative viability (NCI-H1650; first compound 4 µM): 0.244 | relative viability (NCI-H2023; first compound 0.04 µM): 0.638 | relative viability (NCI-H2023; first compound 0.1265 µM): 0.512 | relative viability (NCI-H2023; first compound 0.4 µM): 0.415 | relative viability (NCI-H2023; first compound 4 µM): 0.342 | relative viability (NCI-H1915; first compound 0.04 µM): 0.307 | relative viability (NCI-H1915; first compound 0.1265 µM): 0.308 | relative viability (NCI-H1915; first compound 0.4 µM): 0.319 | relative viability (NCI-H1915; first compound 4 µM): 0.278 | relative viability (LCLC-97TM1; first compound 0.04 µM): 0.839 | relative viability (LCLC-97TM1; first compound 0.1265 µM): 0.744 | relative viability (LCLC-97TM1; first compound 0.4 µM): 0.794 | relative viability (LCLC-97TM1; first compound 4 µM): 0.893 | relative viability (NCI-H727; first compound 0.04 µM): 0.361 | relative viability (NCI-H727; first compound 0.1265 µM): 0.368 | relative viability (NCI-H727; first compound 0.4 µM): 0.378 | relative viability (NCI-H727; first compound 4 µM): 0.286 | relative viability (H3255; first compound 0.04 µM): 0.432 | relative viability (H3255; first compound 0.1265 µM): 0.347 | relative viability (H3255; first compound 0.4 µM): 0.424 | relative viability (H3255; first compound 4 µM): 0.346 | relative viability (NCI-H520; first compound 0.04 µM): 0.216 | relative viability (NCI-H520; first compound 0.1265 µM): 0.227 | relative viability (NCI-H520; first compound 0.4 µM): 0.248 | relative viability (NCI-H520; first compound 4 µM): 0.136 | relative viability (NCI-H596; first compound 0.04 µM): 0.568 | relative viability (NCI-H596; first compound 0.1265 µM): 0.512 | relative viability (NCI-H596; first compound 0.4 µM): 0.572 | relative viability (NCI-H596; first compound 4 µM): 0.484 | relative viability (NCI-H1792; first compound 0.04 µM): 0.74 | relative viability (NCI-H1792; first compound 0.1265 µM): 0.684 | relative viability (NCI-H1792; first compound 0.4 µM): 0.788 | relative viability (NCI-H1792; first compound 4 µM): 0.72 | relative viability (NCI-H650; first compound 0.04 µM): 0.45 | relative viability (NCI-H650; first compound 0.1265 µM): 0.445 | relative viability (NCI-H650; first compound 0.4 µM): 0.359 | relative viability (NCI-H650; first compound 4 µM): 0.384 | relative viability (ABC-1; first compound 0.1265 µM): 0.571 | relative viability (ABC-1; first compound 0.4 µM): 0.447 | relative viability (ABC-1; first compound 4 µM): 0.504 | relative viability (NCI-H1944; first compound 0.04 µM): 0.21 | relative viability (NCI-H1944; first compound 0.1265 µM): 0.236 | relative viability (NCI-H1944; first compound 0.4 µM): 0.263 | relative viability (NCI-H1944; first compound 4 µM): 0.264 | relative viability (NCI-H1651; first compound 0.04 µM): 0.47 | relative viability (NCI-H1651; first compound 0.1265 µM): 0.411 | relative viability (NCI-H1651; first compound 0.4 µM): 0.478 | relative viability (NCI-H1651; first compound 4 µM): 0.348 | relative viability (HCC-15; first compound 0.04 µM): 0.659 | relative viability (HCC-15; first compound 0.1265 µM): 0.6 | relative viability (HCC-15; first compound 0.4 µM): 0.531 | relative viability (HCC-15; first compound 4 µM): 0.455 | relative viability (NCI-H661; first compound 0.04 µM): 0.919 | relative viability (NCI-H661; first compound 0.1265 µM): 0.881 | relative viability (NCI-H661; first compound 0.4 µM): 0.968 | relative viability (NCI-H661; first compound 4 µM): 0.797 | relative viability (BEN; first compound 0.04 µM): 0.308 | relative viability (BEN; first compound 0.1265 µM): 0.265 | relative viability (BEN; first compound 0.4 µM): 0.333 | relative viability (BEN; first compound 4 µM): 0.377 | relative viability (A-427; first compound 0.04 µM): 0.737 | relative viability (A-427; first compound 0.1265 µM): 0.719 | relative viability (A-427; first compound 0.4 µM): 0.729 | relative viability (A-427; first compound 4 µM): 0.669 | relative viability (CAL-12T; first compound 0.04 µM): 0.515 | relative viability (CAL-12T; first compound 0.1265 µM): 0.535 | relative viability (CAL-12T; first compound 0.4 µM): 0.429 | relative viability (CAL-12T; first compound 4 µM): 0.2 | relative viability (LC-2-ad; first compound 0.04 µM): 0.583 | relative viability (LC-2-ad; first compound 0.1265 µM): 0.55 | relative viability (LC-2-ad; first compound 0.4 µM): 0.487 | relative viability (LC-2-ad; first compound 4 µM): 0.492 | relative viability (NCI-H2087; first compound 0.04 µM): 0.971 | relative viability (NCI-H2087; first compound 0.1265 µM): 0.852 | relative viability (NCI-H2087; first compound 0.4 µM): 0.894 | relative viability (NCI-H2087; first compound 4 µM): 0.743 | relative viability (NCI-H460; first compound 0.04 µM): 0.606 | relative viability (NCI-H460; first compound 0.1265 µM): 0.484 | relative viability (NCI-H460; first compound 0.4 µM): 0.427 | relative viability (NCI-H460; first compound 4 µM): 0.339 | relative viability (PC-3 [JPC-3]; first compound 0.04 µM): 0.983 | relative viability (PC-3 [JPC-3]; first compound 0.1265 µM): 1.06 | relative viability (PC-3 [JPC-3]; first compound 0.4 µM): 1.01 | relative viability (PC-3 [JPC-3]; first compound 4 µM): 0.918 | relative viability (201T; first compound 0.04 µM): 0.624 | relative viability (201T; first compound 0.1265 µM): 0.525 | relative viability (201T; first compound 0.4 µM): 0.581 | relative viability (201T; first compound 4 µM): 0.52
